From ChEMBL document CHEMBL1143768, “Microwave prompted multigram synthesis, structural determination, and photo-antiproliferative activity of fluorinated 4-hydroxyquinolinones” (Bioorg Med Chem Lett, 2007)
Values after ≈ are worked out from the molar mass of the structure shown.

Experiments:
[1] = tested on: Mycobacterium tuberculosis; test: Growth inhibition of Mycobacterium tuberculosis at 6.25 ug/ml; format: functional
HL-60 [2] = test: Cell cycle arrest in HL60 cell line irradiated with 2.5 J cm^-2 assessed as accumulation at S phase at 2.5 […] after 24 hrs; format: functional, Homo sapiens
HL-60 [3] = test: Photocytotoxicity against human HL60 cell line irradiated with 2.5 J cm^-2 after 72 hrs by MTT assay; format: functional; settings: HL-60, light or radiation study
HL-60 [4] = test: Cell cycle arrest in HL60 cell line irradiated with 2.5 J cm^-2 assessed as accumulation at G2 phase at 5.0 […] after 72 hrs; format: functional, Homo sapiens
HL-60 [5] = test: Cell cycle arrest in HL60 cell line irradiated with 2.5 J cm^-2 assessed as accumulation at S phase at 5.0 […] after 48 hrs; format: functional, Homo sapiens
HL-60 [6] = test: Cell cycle arrest in HL60 cell line irradiated with 2.5 J cm^-2 assessed as accumulation at G1 phase at 2.5 […] after 72 hrs; format: functional, Homo sapiens
HL-60 [7] = test: Cell cycle arrest in HL60 cell line irradiated with 2.5 J cm^-2 assessed as accumulation at G1 phase at 2.5 […] after 24 hrs; format: functional, Homo sapiens
HL-60 [8] = test: Cell cycle arrest in HL60 cell line irradiated with 2.5 J cm^-2 assessed as accumulation at G2 phase at 2.5 […] after 48 hrs; format: functional, Homo sapiens
HL-60 [9] = test: Cell cycle arrest in HL60 cell line irradiated with 2.5 J cm^-2 assessed as accumulation at G2 phase at 5.0 […] after 48 hrs; format: functional, Homo sapiens
HL-60 [10] = test: Cell cycle arrest in HL60 cell line irradiated with 2.5 J cm^-2 assessed as accumulation at G1 phase at 5.0 […] after 72 hrs; format: functional, Homo sapiens
LoVo = test: Photocytotoxicity against human LoVo cell line irradiated with 2.5 J cm^-2 after 72 hrs by MTT assay; format: functional; settings: light or radiation study
HL-60 [11] = test: Apoptotic activity in HL60 cells irradiated with 2.5 J cm^-2 at 2.5 […] after 72 hrs; format: functional, Homo sapiens
HL-60 [12] = test: Apoptotic activity in HL60 cells irradiated with 2.5 J cm^-2 at 2.5 […] after 48 hrs; format: functional, Homo sapiens
[13] = Photocytotoxicity against human NTCC 2544 cell line irradiated with 2.5 J cm^-2 after 72 hrs by MTT assay; format: cell-based; settings: NTCC 2544 cells
HL-60 [14] = test: Apoptotic activity in HL60 cells irradiated with 2.5 J cm^-2 at 5.0 […] after 72 hrs; format: functional, Homo sapiens
HL-60 [15] = test: Cell cycle arrest in HL60 cell line […] cm^-2 assessed as accumulation at G2 phase at 2.5 […] after 72 hrs; format: functional, Homo sapiens
HL-60 [16] = test: Cell cycle arrest in HL60 cell line irradiated with 2.5 J cm^-2 assessed as accumulation at G1 phase at 2.5 […] after 48 hrs; format: functional, Homo sapiens
HL-60 [17] = test: Cell cycle arrest in HL60 cell line irradiated with 2.5 J cm^-2 assessed as accumulation at S phase at 5.0 […] after 24hrs; format: functional, Homo sapiens
HL-60 [18] = test: Cell cycle arrest in HL60 cell line irradiated with 2.5 J cm^-2 assessed as accumulation at G2 phase at 2.5 […] after 24 hrs; format: functional, Homo sapiens
HL-60 [19] = test: Cell cycle arrest in HL60 cell line irradiated with 2.5 J cm^-2 assessed as accumulation at S phase at 5.0 […] after 72 hrs; format: functional, Homo sapiens
HL-60 [20] = test: Cell cycle arrest in HL60 cell line irradiated with 2.5 J cm^-2 assessed as accumulation at G1 phase at 5.0 […] after 24hrs; format: functional, Homo sapiens
HL-60 [21] = test: Apoptotic activity in HL60 cells irradiated with 2.5 J cm^-2 at 2.5 […] after 24 hrs; format: functional, Homo sapiens
HL-60 [22] = test: Cell cycle arrest in HL60 cell line irradiated with 2.5 J cm^-2 assessed as accumulation at G1 phase at 5.0 […] after 48 hrs; format: functional, Homo sapiens
HL-60 [23] = test: Apoptotic activity in HL60 cells irradiated with 2.5 J cm^-2 at 5.0 […] after 24 hrs; format: functional, Homo sapiens
[24] = Photocytotoxicity against human NTCC 2544 cell line irradiated with 1.25 J cm^-2 after 72 hrs by MTT assay; format: cell-based; settings: NTCC 2544 cells
HL-60 [25] = test: Cell cycle arrest in HL60 cell line irradiated with 2.5 J cm^-2 assessed as accumulation at G2 phase at 5.0 […] after 24hrs; format: functional, Homo sapiens
HL-60 [26] = test: Cell cycle arrest in HL60 cell line irradiated with 2.5 J cm^-2 assessed as accumulation at S phase at 2.5 […] after 48 hrs; format: functional, Homo sapiens
HL-60 [27] = test: Apoptotic activity in HL60 cells irradiated with 2.5 J cm^-2 at 5.0 […] after 48 hrs; format: functional, Homo sapiens
HL-60 [28] = test: Photocytotoxicity against human HL60 cell line irradiated with 1.25 J cm^-2 after 72 hrs by MTT assay; format: functional; settings: HL-60, light or radiation study
HL-60 [29] = test: Cell cycle arrest in HL60 cell line irradiated with 2.5 J cm^-2 assessed as accumulation at S phase at 2.5 […] after 72 hrs; format: functional, Homo sapiens
[30] = tested on: Mycobacterium tuberculosis; test: Antimicrobial activity against Mycobacterium tuberculosis; format: functional
Trichophyton benhamiae = test: Antifungal activity against Trichophyton mentagrophytes 445(TM) by broth microdilution test; format: functional, Arthroderma benhamiae

## O=c1cc(O)c2ccccc2[nH]1
[1]
  inhibition at 6.25 µg/mL: 0%

## O=c1cc(O)c2cc(F)ccc2[nH]1
HL-60 [2]
  Activity: 58.4%
HL-60 [3]
  GI50: 7.8 µM
HL-60 [4]
  Activity: 6.9%
HL-60 [5]
  Activity: 38.6%
HL-60 [6]
  Activity: 44.2%
HL-60 [7]
  Activity: 30.8%
HL-60 [8]
  Activity: 10.3%
HL-60 [9]
  Activity: 11.7%
HL-60 [10]
  Activity: 56%
LoVo
  GI50: 12.1 µM
HL-60 [11]
  Activity: 40.5%
HL-60 [12]
  Activity: 27%
[13]
  GI50 at 72 h: > 20 µM
HL-60 [14]
  Activity: 46%
HL-60 [15]
  Activity: 12%
HL-60 [16]
  Activity: 44.7%
HL-60 [17]
  Activity: 54.3%
HL-60 [18]
  Activity: 10.8%
HL-60 [19]
  Activity: 37.1%
HL-60 [20]
  Activity: 34.6%
HL-60 [21]
  Activity: 13.2%
HL-60 [22]
  Activity: 49.6%
[1]
  inhibition at 6.25 µg/mL: 35%
HL-60 [23]
  Activity: 21%
[24]
  GI50 at 72 h: > 20 µM
HL-60 [25]
  Activity: 11.1%
HL-60 [26]
  Activity: 45%
HL-60 [27]
  Activity: 26%
HL-60 [28]
  GI50: > 10 µM
HL-60 [29]
  Activity: 43.8%

## O=c1cc(O)c2cccc(C(F)(F)F)c2[nH]1
HL-60 [3]
  GI50: 7.3 µM
LoVo
  GI50: 10.1 µM
[13]
  GI50 at 72 h: 7.8 µM
[1]
  inhibition at 6.25 µg/mL: 69%
[24]
  GI50 at 72 h: > 20 µM
HL-60 [28]
  GI50: > 10 µM

## O=c1cc(O)c2ccc(C(F)(F)F)cc2[nH]1
LoVo
  GI50: 1.8 µM
[13]
  GI50 at 72 h: 2.5 µM
[1]
  inhibition at 6.25 µg/mL: 72%
[24]
  GI50 at 72 h: 7 µM
[30]
  Inhibition: 72%
HL-60 [28]
  GI50: 6.2 µM

## Cc1ccc2c(O)cc(=O)[nH]c2c1
HL-60 [3]
  GI50: 10 µM
[1]
  inhibition at 6.25 µg/mL: 54%
HL-60 [28]
  GI50: > 10 µM

## O=c1cc(O)c2cccc(F)c2[nH]1
HL-60 [3]
  GI50: 10 µM
[1]
  inhibition at 6.25 µg/mL: 50%
HL-60 [28]
  GI50: > 10 µM

## O=c1cc(O)c2ccc(F)cc2[nH]1
HL-60 [3]
  GI50: 10 µM
[1]
  inhibition at 6.25 µg/mL: 52%
HL-60 [28]
  GI50: > 10 µM

## O=c1cc(O)c2ccc(Cl)cc2[nH]1
[1]
  inhibition at 6.25 µg/mL: 2%

## OC(Cn1cncn1)(Cn1cncn1)c1ccc(F)cc1F [FLUCONAZOLE]
Trichophyton benhamiae
  MIC: 1950 µM (≈ 597 µg/mL)

## NC(=O)c1cnccn1 [PYRAZINAMIDE]
[1]
  inhibition at 6.25 µg/mL: 100%
